The source of these data is patent publication US10709708B2, “Method of treating cancer with a combination of MER tyrosine kinase inhibitor and an epidermal growth factor receptor (EGFR) inhibitor” (Emory University, priority 2016, dated 2020).

The structures appear in SMILES notation. Read-outs that look alike come from different tables or passages of the source.

For one experiment, the system named is A549 cells. Nature of the experiment: Expansion of A549 cells in culture, Incucyte ZOOM live cell imaging. In kind it is cell-based. The following applies: for reduction of A549 cell number: agents alone or together at the same concentrations.
In experiment [1] the test system is mutant EGFR NSCLC cells & EGFR TKI-resistant derivatives. Put plainly: Viable cell counts of mutant EGFR NSCLC cells and EGFR TKI-resistant derivatives. The following applies: H1975, H1650 and AZD-9291 or erlotinib resistant derivatives. In kind it is cell-based. How it is done:
The indicated cell lines are shown in FIG. 15A (H1975), FIG. 15B (H1650), FIG. 15C (H1975^AZD-R), and FIG. 15D (H1650^AZD-R).
The indicated cell lines are shown in FIG. 16A (H1975), FIG. 16B (H1650), FIG. 16C (H4011), FIG. 16D (H1975^AZD-R), FIG. 16E (H1650^AZD-R), and FIG. 16F (H1650^ERL-R).
NSCLC cells were cultured in the presence of the indicated compound(s) or an equivalent volume of vehicle (DMSO) only and the numbers of viable cells were counted at the indicated intervals using the Incucyte ZOOM live cell imaging system.

The subject of experiment [2] is mutant EGFR NSCLC cell lines. Nature of the experiment: Cell counts of mutant EGFR NSCLC cell lines. The class given is cell-based. The conditions noted are these: mutant EGFR NSCLC cell lines (H1650, H4006, PC9, HCC827). On the procedure:
(§1) NSCLC and normal bronchial epithelial (BEAS2B) cell lines were cultured with CO-1686 for 60 hours and confluency was determined (BEAS2B) or cells were counted (NSCLC cell lines) and normalized to vehicle-controls.
For treatment with CO-1686, the cell lines are shown in FIG. 9A (H1650), FIG. 9B (H4006), and FIG. 9C (PC9). For treatment with AZD-9291, the cell lines are shown in FIG. 9D (H1650) and FIG. 9E (HCC827). The indicated NSCLC cell lines were treated with CO-1686, AZD-9291, and/or MRX-2843 and cells were counted every 2 hours.

The next experiment deals with A549 shMERTK cells. Nature of the experiment: Confluence of A549 shMERTK cells, Incucyte ZOOM live cell imaging. In kind it is cell-based. The conditions noted are these: A549 shMERTK cell line, CO-1686 vs vehicle. The text has this: FIGS. 5A and 5B show inhibition of MERTK using shRNA sensitized A549 cells to CO-1686. FIG. 5A is an immunoblot showing decreased MERTK expression mediated by shRNA in A549 cells. […] FIG. 6A is an immunoblot showing decreased EGFR expression mediated by siRNA in A549 and […] cells.

Experiment [3] deals with wild-type EGFR NSCLC cell lines. The following applies: as reported by Walter; cited from earlier work.
Experiment [4] has as its system mutant EGFR NSCLC cell lines. The following applies: EGFR mutation incl. T790M (H1975); 1 μM; as reported by Walter; cited from earlier work.
The subject of experiment [5] is mutant forms of EGFR including T790M. The following applies: Walter et al. 2013; cited from earlier work.
For experiment [6], the system named is wild-type EGFR NSCLC cell lines. Nature of the experiment: Cell counts of wild-type EGFR NSCLC cell lines after 60 hours. The class given is cell-based. On the procedure: as §1
The indicated NSCLC cell lines were treated with CO-1686 and/or MRX-2843 for 60 hours and cells were counted and normalized to vehicle controls.

As for `CN1CCN(Cc2ccc(-c3cn([C@H]4CC[C@H](O)CC4)c4nc(NCCC5CC5)ncc34)cc2)CC1` [MRX-2843], the “reduction of A549 cell number” value with A549 cells (A549 cells) is 13.2±4.1%.

On to `Clc1ccc(C2(c3ccc(-c4cn[nH]c4)cc3)CCNCC2)cc1` [AT7867], for which, in experiment [1], the “anti-tumor activity in combination with MRX-2843” value is “synergistic anti-tumor activity”.

`C=CC(=O)Nc1cc(Nc2nccc(-c3cn(C)c4ccccc34)n2)c(OC)cc1N(C)CCN(C)C` [AZD-9291, Osimertinib]: the “interaction with MRX-2843” value in the experiment with A549 cells (A549 cells, combined with MRX-2843) was “synergized”; in experiment [2], “synergize”.

On to `Nc1nc(Nc2ccc3c(c2)CCC(N2CCCC2)CC3)nn1-c1cc2c(nn1)-c1ccccc1CCC2` (stereo not drawn) [R428], for which, in the experiment on A549 cells (A549 cells, combined with CO-1686), the “interaction with CO-1686” value is given as “synergized”.

`CN1CCC(CNc2ccc3ncc(-c4cccc(OC(F)(F)F)c4)n3n2)CC1` [SGI-1776]: in experiment [1], the “anti-tumor activity in combination with MRX-2843” value is given as “synergistic anti-tumor activity”.

Regarding `C=CC(=O)Nc1cccc(Nc2nc(Nc3ccc(N4CCN(C(C)=O)CC4)cc3OC)ncc2C(F)(F)F)c1` [CO-1686, Rociletinib], the “reduction in cell number” value is 23.4±0.22% in the experiment on A549 shMERTK cells and 9.9±2.89% in the experiment on A549 cells (wild-type A549 cells, CO-1686 vs vehicle, confluence). In addition, the “sensitivity of cell lines to CO-1686” value in experiment [3] is reported as “resistant”; in experiment [4], “clear sensitivity”; in experiment [6] (wild-type EGFR cell lines compared to mutant EGFR lines) it was “resistant”. In the experiment on A549 cells (A549 cells), the “reduction of A549 cell number” value came to 20.9±5.7%. In experiment [5], the IC50 (in general, the concentration needed to halve the response being measured) was 0.021 µM. Moreover, the “interaction with MRX-2843” value is “synergizes” in experiment [6] (broad spectrum of wild-type EGFR NSCLC cell lines) and “synergize” in experiment [2].
